Patent publication US20250319088A1, “DAPRODUSTAT FOR REDUCING FATIGUE IN A SUBJECT WITH ANEMIA ASSOCIATED WITH CHRONIC KIDNEY DISEASE” (GlaxoSmithKline Intellectual Property (No.2) Limited, priority 2021, published 2025)

Assays:
[1] = tested on: non-dialysis patient with anaemia associated with chronic kidney disease; assay: hsCRP levels by baseline hsCRP quartile in 28 week placebo controlled clinical study; type: in vivo, human
Method: (§1) A 28 week randomized double blind placebo controlled clinical study in non-dialysis patient with anaemia associated with chronic kidney disease has been conducted. Participants were assessed for eligibility for inclusion in the study on the basis of the following (non-exhaustive) inclusion and exclusion criteria.
In addition to analysis of the intention to treat population, several sub-group analyses were pre-specified including subgroups with baseline hsCRP quartiles of <0.9 mg/L, 0.9 to <2.6 mg/L, 2.60 to <6.60 mg/L and ≥6.60 mg/L.
The changes in hsCRP levels in each quartile are given below in Tables 5 to 8.

[2] = tested on: non-dialysis patient with anaemia associated with chronic kidney disease; assay: Haemoglobin concentration change from baseline to evaluation period in 28 week placebo controlled clinical study; type: in vivo, human
Method: as §1
(§2) Enrolled participants were randomized 1:1 to receive either daprodustat or matching placebo tablets administered once daily.
(§3) The treatment doses for participants in both treatment arms were titrated based on haemoglobin concentration as assessed by HemoCue. Haemoglobin concentration by HemoCue is assessed on day 1, and at weeks 2, 4, 8, 12, 16, 20, 24 and 28. The available dose steps of daprodustat and placebo were 1 mg, 2 mg, 4 mg, 6, mg, 8 mg, 10 mg, 12 mg and 16 mg. Dose modifications for participants followed the dose adjustment algorithm to achieve and maintain haemoglobin concentration within the target range of 11.0 to 12.0 g/dL outlined in Table 2.
The primary objective of the trial was to compare the efficacy of daprodustat to placebo on mean change in haemoglobin concentration. The primary endpoint was the mean change in haemoglobin concentration between baseline (day 1) and the evaluation period (mean over week 24 to week 28 inclusive).
For the endpoints of mean change in haemoglobin and SF-36 Vitality Domain, an analysis of covariance model was used including covariates of baseline level, treatment, and region. The model provided point estimate and two-sided 95% CI for the treatment effect, together with a one-sided p-value. Significance was determined if the one-sided p-value was less than 0.025. The analysis population for the haemoglobin and SF-36 Vitality Domain endpoints was the intent-to-treat population. […]

[3] = tested on: non-dialysis patient with anaemia associated with chronic kidney disease; assay: SF-36 Vitality Domain score in 28 week randomized double blind placebo controlled clinical study; type: in vivo, human; details: for Adjusted mean SF-36 Vitality Change from Baseline at Week 28 (SE): 0-100 score; for adjusted mean treatment difference (CI) in SF-36 Vitality: dapro-placebo
Method: as §1, §2, §3
(§4) The Short form SF-36 questionnaire was completed by participants on day 1 and on weeks 8, 12 and 28, and the CKD-AQ questionnaire was completed by participants on week −2 (i.e. during screening period) and on day 1 and weeks 8, 12 and 28.
(§5) • Mean change in the SF-36 Vitality Domain score (0-100) between baseline and week 28. This was a principal secondary endpoint and the study was appropriately powered for this endpoint. • Mean change from baseline by domain and overall symptoms score on the CKD-AQ (the study was not powered for this secondary endpoint, so only nominal significance can be assessed).
(§6) For the endpoints of mean change in haemoglobin and SF-36 Vitality Domain, an analysis of covariance model was used including covariates of baseline level, treatment, and region. The model provided point estimate and two-sided 95% CI for the treatment effect, together with a one-sided p-value. Significance was determined if the one-sided p-value was less than 0.025. The analysis population for the haemoglobin and SF-36 Vitality Domain endpoints was the intent-to-treat population. The analysis population for the Chronic Kidney Disease Anemia Questionnaire Tired/Low Energy/Weak Domain endpoint was the on treatment population and analysis was based on a mixed model repeated measures model fitted from baseline up to Week 28 with factors for treatment, time, region, baseline value, baseline value by time, and treatment by time interactions.
For the endpoints of mean change in haemoglobin and SF-36 Vitality Domain by subgroup, a similar model to that described above was used, adding covariates for subgroup and subgroup by treatment interaction term. The analysis population for these endpoints was the intent-to-treat population.
For endpoints of difference in SF-36 Vitality domain response rate, a Cochran-Mantel-Haenszel chi-squared test was used adjusting for treatment, baseline level, and region, to make comparisons between the treatment groups. Significance was determined if the one-sided p-value was less than 0.025. The analysis population for these endpoints was the intent-to-treat population.

[4] = tested on: non-dialysis patient with anaemia associated with chronic kidney disease; assay: CKD-AQ Tired/Low Energy/Weak Domain score in 28 week placebo controlled clinical study; type: in vivo, human; details: on treatment population
Method: as §1, §2, §4, §5, §6
A simple linear transformation was used to recalibrate the items to a 0-100 scale as outlined in Tables 11 and 12. […]

[5] = tested on: patients with type 2 diabetes mellitus, non-dialysis dependent chronic kidney disease and anemia; details: at 25 weeks, cited from earlier work

O=C(O)CNC(=O)C1C(=O)N(C2CCCCC2)C(=O)N(C2CCCCC2)C1=O [Daprodustat, N-((1,3-dicyclohexylhexahydro-2,4,6-trioxopyrimidin-5-yl)carbonyl)glycine]
Geometric mean hsCRP ([1]; baseline hsCRP 0.9-<2.60 mg/L, Baseline): 1.46 mg/L | Geometric mean hsCRP ([1]; baseline hsCRP 0.9-<2.60 mg/L, Day 1): 1.46 mg/L | Geometric mean hsCRP ([1]; baseline hsCRP 0.9-<2.60 mg/L, End of Treatment): 2.55 mg/L | Geometric mean hsCRP ([1]; baseline hsCRP 0.9-<2.60 mg/L, Week 28): 2.55 mg/L | Geometric mean hsCRP ([1]; baseline hsCRP 2.60-<6.60 mg/L, Baseline): 3.93 mg/L | Geometric mean hsCRP ([1]; baseline hsCRP 2.60-<6.60 mg/L, Day 1): 3.93 mg/L | Geometric mean hsCRP ([1]; baseline hsCRP 2.60-<6.60 mg/L, End of Treatment): 3.83 mg/L | Geometric mean hsCRP ([1]; baseline hsCRP 2.60-<6.60 mg/L, Week 28): 3.85 mg/L | Geometric mean hsCRP ([1]; baseline hsCRP <0.9 mg/L, Baseline): 0.48 mg/L | Geometric mean hsCRP ([1]; baseline hsCRP <0.9 mg/L, Day 1): 0.48 mg/L | Geometric mean hsCRP ([1]; baseline hsCRP <0.9 mg/L, End of Treatment): 0.86 mg/L | Geometric mean hsCRP ([1]; baseline hsCRP <0.9 mg/L, Week 28): 0.85 mg/L | Geometric mean hsCRP ([1]; baseline hsCRP ≥6.60 mg/L, Baseline): 16.96 mg/L | Geometric mean hsCRP ([1]; baseline hsCRP ≥6.60 mg/L, Day 1): 16.79 mg/L | Geometric mean hsCRP ([1]; baseline hsCRP ≥6.60 mg/L, End of Treatment): 8.92 mg/L | Geometric mean hsCRP ([1]; baseline hsCRP ≥6.60 mg/L, Week 28): 9.04 mg/L | change in hsCRP levels ([1]; subjects with high baseline hsCRP (≥6.60 mg/L), similar reductions in placebo group): large reductions in hsCRP levels | haemoglobin concentration compared to placebo over the treatment period ([2]; one sided superiority p-value <0.0001): significantly increased haemoglobin concentration | adjusted mean treatment difference in haemoglobin concentration ([2]; subjects having baseline haemoglobin >11 g/dL): 0.76 g/dL | adjusted mean treatment difference in haemoglobin concentration ([2]; subjects having baseline hsCRP ≥6.60 mg/L): 1.25 g/dL | SF-36 vitality domain scores for daprodustat and placebo ([3]; at week 12): not distinguishable | adjusted difference in response rate (dapro-placebo), ≥6.0 point SF-36 Vitality increase ([3]; baseline to week 28): 0.13 (0.04, 0.22) | Baseline SF-36 Vitality Sub-score Mean (SD) ([3]; baseline, intention to treat population, includes imputed values): 50.74 (21.175) | Adjusted Mean Treatment Difference (dapro − placebo) in SF-36 Vitality change from baseline at week 28 ([3]; intention to treat population): 5.36 | Adjusted mean SF-36 Vitality Change from Baseline at Week 28 (SE) ([3]; intention to treat population): 7.29 (1.121) | Adjusted mean SF-36 Vitality Change from Baseline at Week 28 (SE) ([3]; intention to treat population, listed as daprodustat): 7.29 | participants with a ≥6.0 point difference from baseline to week 28 in the SF-36 Vitality Sub-score ([3]; responder rate, intention to treat population): 58% | adjusted mean treatment difference (CI) in SF-36 Vitality ([3]; subgroup baseline hsCRP 0.9 to <2.6 mg/L): 1.09 (−4.86, 7.04) | adjusted mean SF-36 Vitality Change ([3]; subgroup baseline hsCRP 0.9 to <2.6 mg/L, week 28): 4.98 | adjusted mean treatment difference (CI) in SF-36 Vitality ([3]; subgroup baseline hsCRP 2.60 to <6.60 mg/L): 4.38 (−1.77, 10.53) | adjusted mean SF-36 Vitality Change ([3]; subgroup baseline hsCRP 2.60 to <6.60 mg/L, week 28): 7.92 | adjusted mean treatment difference (CI) in SF-36 Vitality ([3]; subgroup baseline hsCRP <0.9 mg/L): 10.0 (3.53, 16.47) | adjusted mean SF-36 Vitality Change ([3]; subgroup baseline hsCRP <0.9 mg/L, week 28): 9.84 | adjusted mean treatment difference (CI) in SF-36 Vitality ([3]; subgroup baseline hsCRP ≥6.60 mg/L): 7.71 (1.62, 13.80) | adjusted mean treatment difference (CI) in SF-36 Vitality ([3]; subgroup baseline hsCRP ≥6.60 mg/L, listed as daprodustat): 7.71 | adjusted mean SF-36 Vitality Change ([3]; subgroup baseline hsCRP ≥6.60 mg/L, week 28): 8.24 | adjusted mean treatment difference in SF-36 Vitality domain subscore ([3]; subjects having baseline haemoglobin <9 g/dL): 7.44 | adjusted mean treatment difference in SF-36 Vitality ([3]; subjects having baseline haemoglobin >11 g/dL, small number of subjects): −7.13 | adjusted mean treatment difference in SF-36 Vitality domain subscore ([3]; subjects having baseline haemoglobin ≥9 to <10 g/dL): 5.25 | adjusted mean treatment difference in SF-36 Vitality domain subscore ([3]; subjects having baseline haemoglobin ≥10 to ≤11 g/dL): 6.01 | Week 28 SF-36 Vitality Sub-score Mean (SD) ([3]; week 28, intention to treat population, includes imputed values): 58.40 (18.312) | Adjusted Mean Treatment Difference (dapro − placebo) on CKD-AQ Tired/Low Energy/Weak Domain ([4]; baseline to week 28): 5.91 | Adjusted mean change from baseline to week 28 on CKD-AQ Tired/Low Energy/Weak Domain (SE) [4]: 8.72 (1.086) | Adjusted mean change from baseline to week 28 on CKD-AQ Tired/Low Energy/Weak Domain (SE) ([4]; listed as daprodustat): 8.72

darbepoetin alfa
mean change in SF-36 Vitality domain ([5]; versus 4.2±19 placebo, P=0.196): 5.3±20 | percentage of responders having a ≥5-point increase in SF-36 Vitality domain ([5]; versus 49% placebo, nominal P=0.027): 54%
